Like-named read-outs stand apart in the source and are kept apart here.
Columns and labels:
human dopamine D4 = target: T1, human dopamine D4 (Homo sapiens, UniProt P21917); assay: Radioligand binding, dopamine D4 receptor
T1 construct: purchased BioSignal, Inc. (Montreal, Canada)
T1 sequence (P21917 1-419): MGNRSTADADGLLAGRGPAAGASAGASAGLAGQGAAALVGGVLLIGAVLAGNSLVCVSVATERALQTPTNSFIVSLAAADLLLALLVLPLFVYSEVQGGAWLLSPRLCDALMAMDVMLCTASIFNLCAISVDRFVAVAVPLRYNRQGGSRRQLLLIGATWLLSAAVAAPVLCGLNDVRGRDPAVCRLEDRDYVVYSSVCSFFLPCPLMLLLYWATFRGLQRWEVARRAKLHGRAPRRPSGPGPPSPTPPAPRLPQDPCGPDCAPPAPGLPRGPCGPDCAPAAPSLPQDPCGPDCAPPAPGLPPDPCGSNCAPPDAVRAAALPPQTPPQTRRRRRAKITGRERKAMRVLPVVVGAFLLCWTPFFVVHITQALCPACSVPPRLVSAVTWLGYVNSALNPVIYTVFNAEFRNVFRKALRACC
From the text: Other receptors: Cell membranes expressing human dopamine D1, D2, D4 and rat D3 receptors were purchased through BioSignal, Inc. (Montreal, Canada). Binding assays using the histamine H1 receptor; dopamine receptors; and α1A, α1E, and α2 adrenergic receptors may be carried out according to the procedures described in U.S. Patent No. 5,780,485, the disclosure of which is hereby incorporated by reference in its entirety into this application. Binding assays using the dopamine D5 receptor may be carried out according to the procedures described in U.S. Patent No. 5,882,855, the disclosure of which is hereby incorporated by reference in its entirety into this application. Binding assays for the human α1D adrenergic receptor may be carried out according to the procedures described in U.S. Patent No. 6,156,518, the disclosure of which is hereby incorporated by reference in its entirety into this application.
(§1) Binding data were analyzed using nonlinear regression and statistical techniques available in the GraphPAD Prism package (San Diego, CA). Enzymatic assay data were derived from a standard curve of reference compound data.

human 5HT7 = target: T2, human 5HT7 (Homo sapiens, UniProt P34969); assay: Radioligand binding, 5HT7 receptor ([3H]-serotonin)
T2 construct: expressed in transfected cells
T2 sequence (P34969 1-445 isoform P34969-2): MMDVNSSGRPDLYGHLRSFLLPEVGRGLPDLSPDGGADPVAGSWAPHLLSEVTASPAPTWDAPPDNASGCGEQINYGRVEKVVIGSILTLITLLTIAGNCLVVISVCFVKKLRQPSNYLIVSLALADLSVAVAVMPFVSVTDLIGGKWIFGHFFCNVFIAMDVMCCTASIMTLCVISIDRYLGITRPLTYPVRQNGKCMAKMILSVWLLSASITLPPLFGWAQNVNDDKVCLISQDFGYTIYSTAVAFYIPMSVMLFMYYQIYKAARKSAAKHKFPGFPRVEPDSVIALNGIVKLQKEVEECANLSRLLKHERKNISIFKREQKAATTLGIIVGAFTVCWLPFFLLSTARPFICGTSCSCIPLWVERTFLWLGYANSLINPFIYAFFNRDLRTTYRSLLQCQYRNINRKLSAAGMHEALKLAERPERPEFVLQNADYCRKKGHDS
Experimental: Human 5HT1B, 5HT1D, 5HT1E, 5HT1F, and 5HT7 Receptors: The cell lysates of LM(tk-) clonal cell line stably transfected with the genes encoding each of these 5HT receptor-subtypes were prepared as described above. Cell membranes were suspended in 50mM Tris-HCl buffer (pH 7.4 at 37°C) containing 10 mM MgCl2, 0.2 mM EDTA, 10 µM pargyline, and 0.1% ascorbate. […] Nonspecific binding was determined in the presence of 10 µM serotonin. The bound radioligand was separated by filtration through GF/B filters using a cell harvester.
as §1

human GAL3 receptor = target: T3, human GAL3 receptor (Homo sapiens, UniProt O60755); assay: Radioligand binding at cloned human GAL3 receptor
T3 construct: expressed in transfected cells
T3 sequence (O60755 1-368): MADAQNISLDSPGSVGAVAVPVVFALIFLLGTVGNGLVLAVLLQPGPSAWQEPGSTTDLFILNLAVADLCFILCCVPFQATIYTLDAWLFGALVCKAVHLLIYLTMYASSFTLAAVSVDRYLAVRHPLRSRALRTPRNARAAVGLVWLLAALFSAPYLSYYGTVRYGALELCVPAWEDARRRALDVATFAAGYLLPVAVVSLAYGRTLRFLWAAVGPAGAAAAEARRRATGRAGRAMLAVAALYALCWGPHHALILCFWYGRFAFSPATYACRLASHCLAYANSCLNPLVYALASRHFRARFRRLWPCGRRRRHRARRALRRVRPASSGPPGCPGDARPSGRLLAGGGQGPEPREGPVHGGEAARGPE
How it was run: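 Compound vehicle, as final assay concentration, was 3% DMSO (indolones) or 1% ethanol/0.09% polypuronic acid F-127 (pyrimidines). Binding measured on fresh or frozen membranes of stably transfected LM(tk-) mouse fibroblasts carrying cloned human GAL3, in pH 7.4 HEPES buffer; values derived by nonlinear regression.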

[1] = Table 10; Ki hD4 divided by Ki hGAL3
[2] = Table 8; Ki h5HT7 divided by Ki hGAL3
[3] = pyrimidines, cloned human receptor, read-out: Ki GalR3
[4] = indolones, cloned human receptor, read-out: Ki GalR3

SMILES	Ki (human dopamine D4; Table 9; read-out: hD4 Ki) [µM]	selectivity ratio hD4 (human dopamine D4; [1])	Ki (human 5HT7; Table 7; read-out: h5HT7 Ki) [µM]	selectivity ratio h5HT7 (human 5HT7; [2])	Ki (human GAL3 receptor; Table 7, read-out: hGAL3 Ki) [nM]	Ki (human GAL3 receptor; Table 9, read-out: hGAL3 Ki) [nM]	Ki (human GAL3 receptor; [3]) [nM]	Ki (human GAL3 receptor; [4]) [nM]	Ki (human dopamine D4; read-out: hD4 Ki; Table 9) [µM]	Ki (human 5HT7; read-out: h5HT7 Ki; Table 7) [µM]	Ki (human GAL3 receptor; read-out: Ki GalR3, pyrimidines, cloned human receptor) [nM]	Ki (human GAL3 receptor; read-out: hGAL3 Ki, Table 7) [nM]	Ki (human GAL3 receptor; read-out: hGAL3 Ki, Table 9) [nM]	GAL1/GAL3 Ki ratio (human GAL3 receptor; Ki at GAL1 divided by Ki at human GAL3)
Cc1ccc(Nc2cc(N3CCCCC3)nc(N(C)CCc3ccccc3)n2)cc1 [Example 22]	11.6	>100	2.67	>30	28	28	28	–	–	–	–	–	–	–
O=C1C(=Nc2ccc(Br)cc2)c2ccccc2N1c1ccccc1 [Example 98, 3-[(4-BROMOPHENYL)IMINO]-1-PHENYL-1,3-DIHYDRO-2H-INDOL-2-ONE]	> 50	>100	8.46	>100	38	38	–	38	–	–	–	–	–	–
O=C1C(=Nc2ccc(C(F)(F)F)cc2)c2ccccc2N1c1ccccc1 [Example 95, 1-PHENYL-3-[[4-(TRIFLUOROMETHYL)PHENYL]IMINO]-1,3-DIHYDRO-2H-INDOL-2-ONE]	> 50	>100	11.6	>100	29	29	–	29	–	–	–	–	–	–
CN(C)c1cc(Nc2ccc(Cl)c(Cl)c2)nc(Nc2ccccc2)n1 [Example 60]	48.8	>100	3.24	>30	86	86	86	–	–	–	–	–	–	–
CN(CCc1c[nH]c2ccccc12)c1nc(Nc2ccc(F)c(F)c2)cc(N2CCCCC2)n1 [Example 15]	13.2	>30	2.53	>30	73	73	73	–	–	–	–	–	–	–
Cc1ccc(Nc2cc(N3CCCCC3)nc(N(C)CCc3c[nH]c4ccccc34)n2)cc1 [Example 11]	4.83	>30	1.01	11	91	91	91	–	–	–	–	–	–	–
O=C1C(=Nc2cc(Cl)cc(Cl)c2)c2ccccc2N1c1ccccc1 [Example 103, 3-[(3,5-DICHLOROPHENYL)IMINO]-1-PHENYL-1,3-DIHYDRO-2H-INDOL-2-ONE]	–	–	–	–	–	–	–	68	–	–	–	–	–	–
COc1cccc(Nc2cc(N3CCCCC3)nc(N(C)CCc3c[nH]c4ccccc34)n2)c1 [Example 17]	22.2	>100	1.8	21	87	87	87	–	–	–	–	–	–	–
Cc1ccc(Nc2cc(N(C)C)nc(N(C)CCc3c[nH]c4ccccc34)n2)cc1 [Example 77]	0.504	6	1.55	20	79	79	79	–	–	–	–	–	–	–
O=C1C(=Nc2cccc(C(F)(F)F)c2)c2ccccc2N1c1ccccc1 [Example 92, 1-PHENYL-3- [[3-(TRIFLUOROMETHYL)PHENYL]IMINO]-1,3-DIHYDRO-2H-INDOL-2-ONE]	–	>100	–	–	–	–	–	–	–	–	–	–	–	–
O=C1C(=Nc2cccc(Cl)c2)c2ccccc2N1c1ccccc1 [Example 94, 3-[(3-CHLOROPHENYL)IMINO]-1-PHENYL-1,3-DIHYDRO-2H-INDOL-2-ONE]	> 50	>100	8.02	>100	49	49	–	49	–	–	–	–	–	–
COC[C@@H]1[C@@H](c2ccccc2)OCCN1c1nc(Nc2ccc(C)cc2)cc(N2CCCCC2)n1 [Example 49]	–	>100	–	>30	–	–	–	–	45.8	12.3	211	211	211	–
O=C1C(=Nc2ccc(Cl)cc2)c2ccccc2N1c1ccccc1 [Example 97, 3-[(4-CHLOROPHENYL)IMINO]-1-PHENYL-1,3-DIHYDRO-2H-INDOL-2-ONE]	> 50	>100	11.3	>100	51	51	–	51	–	–	–	–	–	–
Cc1ccc(Nc2cc(N3CCCCC3)nc(N3CCN(c4ncccc4C(F)(F)F)CC3)n2)cc1 [Example 34]	18.7	>100	4.44	>100	23	23	23	–	–	–	–	–	–	39

— patent EP2140864A2 (H. Lundbeck A/S, priority 2001, dated 2002)
